These results are taken from ChEMBL document CHEMBL1201862, “PubChem BioAssay data set” (2004).

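Briefly, cells in 96-well plates were exposed to five compound concentrations for 48 h, and endpoints were estimated by linear interpolation. Here, GI50 denotes the concentration required for 50% inhibition of growth.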 Calls of active or inactive are those of the source. Cut-off read from the data, not from the text of the source: active = GI50 up to about 1.1 µM and inactive = higher.

Some test systems named below: HCT-116; KM12; UACC-62; CAKI-1; A498; NCI-H23; U-251; M14; ACHN; A549; CCRF-CEM; COLO 205; IGROV-1; SF-268; SR; SK-MEL-5; SF-539; SK-MEL-2.
Common to all, as to assay: NCI tumour cell line growth inhibition, 48 h

As for `CC(C(=O)c1ccccc1)C1(O)C(=O)Nc2ccccc21` (centres undefined), the GI50 with HCT-116, in the assay with KM12, in the assay with UACC-62, in the assay on CAKI-1, with A498 and with NCI-H23 was > 100 µM (inactive) throughout. Also, the GI50 with U-251, with M14, with ACHN, in the assay on A549, in the assay with CCRF-CEM and in the assay on COLO 205 was > 100 µM (inactive) in each case. Moreover, the GI50 in the assay on IGROV-1, in the assay on SF-268, in the assay with SR, with SK-MEL-5, in the assay on SF-539 and in the assay on SK-MEL-2 was > 100 µM (inactive) in each case.

Consider `COc1cccc2c1C(=O)c1c(O)c3c(c(O)c1C2=O)C[C@@](O)(C(C)O)C[C@@H]3OC1CC(N)C(O)C(C)O1` (some centres undefined), for which the GI50 is 0.805 µM (active) in the assay on HCT-116; 2.24 µM (inactive) in the assay on KM12; 1.34 µM (inactive) with UACC-62; 0.408 µM (active) in the assay on CAKI-1; 2.18 µM (inactive) in the assay with A498; 0.553 µM (active) with NCI-H23. In addition, the GI50 was 0.885 µM (active) with U-251; 3.02 µM (inactive) in the assay on M14; 1.51 µM (inactive) with ACHN; 0.946 µM (active) in the assay on A549; 0.148 µM (active) with CCRF-CEM; 1.41 µM (inactive) in the assay with COLO 205. The GI50 is 2.2 µM (inactive) with IGROV-1; 1.05 µM (active) with SF-268; 0.16 µM (active) in the assay on SR; 0.834 µM (active) in the assay on SK-MEL-5; 0.869 µM (active) in the assay with SF-539; 1.41 µM (inactive) in the assay on SK-MEL-2.

In the case of `C=CCNC1=C(C(=O)OCC)C(=O)CO1`, the GI50 in the assay with HCT-116, with UACC-62, in the assay with CAKI-1, with A498, in the assay with NCI-H23 and with U-251 was > 100 µM (inactive) in each case. Further, the GI50 with M14, in the assay with ACHN, in the assay with A549, with CCRF-CEM, in the assay on IGROV-1 and with SF-268 was > 100 µM (inactive) throughout. Further, the GI50 in the assay on SR, in the assay with SK-MEL-5, in the assay with SF-539 and with SK-MEL-2 was > 100 µM (inactive) each time.

Take `CC1(C)CC(=O)C(CC2C(=O)c3ccccc3C2=O)C(=O)C1`: the GI50 in the assay on HCT-116, with KM12, with UACC-62, in the assay with CAKI-1, with A498 and in the assay with NCI-H23 was > 100 µM (inactive) each time. Also, the GI50 with U-251, in the assay on M14, in the assay with ACHN, in the assay with A549, in the assay on CCRF-CEM and with COLO 205 was > 100 µM (inactive) each time. For the same compound, the GI50 in the assay on IGROV-1 is > 100 µM (inactive); in the assay with SF-268 it was > 100 µM (inactive); in the assay on SR, 53.7 µM (inactive); in the assay with SK-MEL-5, > 100 µM (inactive); with SF-539, > 100 µM (inactive); with SK-MEL-2, > 100 µM (inactive).

Consider `N#CC1=C(N)N2C(=O)/C(=C/c3ccccc3)SC2C(c2nc3ccccc3[nH]2)=C1c1ccccc1` (centres undefined), for which the GI50 with HCT-116 is 3.45 µM (inactive); in the assay with KM12 it was 3.55 µM (inactive); in the assay on UACC-62 it was 2.17 µM (inactive); in the assay with CAKI-1 it was 2.07 µM (inactive); in the assay with A498 it was 2.12 µM (inactive); in the assay on NCI-H23, 1.85 µM (inactive). Moreover, the GI50 was 2.44 µM (inactive) with U-251; 2.44 µM (inactive) in the assay with M14; 3.67 µM (inactive) with ACHN; 3.87 µM (inactive) in the assay on A549; 1.96 µM (inactive) in the assay with CCRF-CEM; 5.98 µM (inactive) with COLO 205. For the same compound, the GI50 in the assay with IGROV-1 was 2.19 µM (inactive); in the assay on SF-268 it was 2.42 µM (inactive); with SR, 1.91 µM (inactive); in the assay on SK-MEL-5, 1.83 µM (inactive); in the assay with SF-539, 1.91 µM (inactive); in the assay on SK-MEL-2, 2.04 µM (inactive).

As for `COc1cc2c(c(OC)c1OC)-c1ccc(SC)c(=O)cc1C(CC(=O)Oc1cccc(C#N)c1)C2` (centres undefined), the GI50 is 0.387 µM (active) in the assay on HCT-116; 0.292 µM (active) with KM12; 0.202 µM (active) in the assay with UACC-62; 3.42 µM (inactive) with CAKI-1; 0.015 µM (active) with A498; 0.454 µM (active) with NCI-H23. Moreover, the GI50 with U-251 was 0.354 µM (active); with M14 it was 0.298 µM (active); with ACHN, 0.593 µM (active); in the assay with A549, 0.516 µM (active); in the assay with CCRF-CEM, 0.337 µM (active); with COLO 205, 0.336 µM (active). Besides, the GI50 with IGROV-1 was 2.06 µM (inactive); in the assay with SF-268 it was 0.512 µM (active); in the assay with SR it was 0.134 µM (active); in the assay with SK-MEL-5 it was 0.313 µM (active); in the assay with SF-539 it was 0.221 µM (active); in the assay with SK-MEL-2 it was 0.348 µM (active).

Take `C=CCC(C)(C(=O)NCCC)C(=O)c1ccccc1O` (centres undefined): the GI50 with HCT-116, with KM12, in the assay on UACC-62, in the assay with CAKI-1, in the assay with A498 and with U-251 was > 100 µM (inactive) in each case. Further, the GI50 in the assay on M14, with ACHN, in the assay with A549, with CCRF-CEM, in the assay with COLO 205 and in the assay on IGROV-1 was > 100 µM (inactive) each time. Besides, the GI50 in the assay with SF-268, with SR, with SK-MEL-5, with SF-539 and with SK-MEL-2 was > 100 µM (inactive) each time.

As for `O=c1/c(=C/c2ccccc2F)sc2nc3ccccc3n12`, the GI50 with HCT-116 is > 100 µM (inactive); with UACC-62, > 100 µM (inactive); with CAKI-1, > 100 µM (inactive); in the assay on A498, > 100 µM (inactive); in the assay with NCI-H23 it was > 100 µM (inactive); in the assay on U-251 it was 38.7 µM (inactive). The GI50 in the assay with M14 was > 100 µM (inactive); with ACHN, > 100 µM (inactive); in the assay with A549, > 100 µM (inactive); in the assay with CCRF-CEM, > 100 µM (inactive); with IGROV-1, > 100 µM (inactive); in the assay on SF-268 it was 61.5 µM (inactive). For the same compound, the GI50 in the assay with SR is 38.3 µM (inactive); in the assay with SK-MEL-5 it was > 100 µM (inactive); in the assay on SF-539 it was 74.3 µM (inactive); in the assay on SK-MEL-2 it was > 100 µM (inactive).

As to `Cc1c(/C=N/NC(=O)c2ccccc2)c(=O)n(-c2ccccc2)n1C`, the GI50 with HCT-116, in the assay with KM12, in the assay on UACC-62, with A498, in the assay with NCI-H23 and in the assay with U-251 was > 100 µM (inactive) throughout. In addition, the GI50 in the assay on M14, in the assay on ACHN, in the assay on A549, with CCRF-CEM, in the assay on COLO 205 and with IGROV-1 was > 100 µM (inactive) in each case. Besides, the GI50 in the assay with SF-268, in the assay on SR, in the assay on SF-539 and in the assay with SK-MEL-2 was > 100 µM (inactive) throughout.

Consider `CC(=O)Nc1ccccc1-c1cnc2ccccc2n1`, for which the GI50 in the assay with HCT-116, in the assay on KM12, in the assay on UACC-62, in the assay on CAKI-1, with A498 and with NCI-H23 was > 100 µM (inactive) throughout. The GI50 in the assay on U-251, in the assay on M14, with ACHN, in the assay on A549, with CCRF-CEM and in the assay on COLO 205 was > 100 µM (inactive) each time. Moreover, the GI50 in the assay with IGROV-1, in the assay on SF-268, with SR, in the assay on SK-MEL-5 and with SF-539 was > 100 µM (inactive) in each case.

Turning to `CCCCCCc1cc2cc(-c3cn4ccsc4n3)c(=O)oc2cc1O`, the GI50 with HCT-116 was > 67.6 µM (inactive); in the assay on KM12, > 100 µM (inactive); in the assay on UACC-62, 19.1 µM (inactive); in the assay on CAKI-1, > 71.1 µM (inactive); in the assay with A498, > 100 µM (inactive); in the assay with NCI-H23, > 82 µM (inactive). In addition, the GI50 with U-251 was 45.6 µM (inactive); in the assay on ACHN, > 100 µM (inactive); in the assay with A549 it was > 100 µM (inactive); in the assay with CCRF-CEM it was > 68.5 µM (inactive); in the assay with COLO 205 it was > 100 µM (inactive); with IGROV-1, > 100 µM (inactive). Also, the GI50 in the assay on SF-268 is > 58.2 µM (inactive); with SR it was > 100 µM (inactive); in the assay on SK-MEL-5, > 30.9 µM (inactive); in the assay with SF-539, 64.3 µM (inactive); in the assay with SK-MEL-2, > 100 µM (inactive).
